Assay results reported in US20140221286A1, “SODIUM CHANNEL BLOCKERS REDUCE GLUCAGON SECRETION” (Gilead Sciences, Inc., priority 2011, published 2014).

Columns and labels:
Format in all cases: cell-based
α-TC1 clone 9 cells = conditions: for Glucagon Secretion % Inhibition: veratridine-induced (30 μM for 1 hour), at a given concentration (not given)
Procedure: Voltage-dependent block (VDB) of […] was determined by whole-cell voltage-clamp recordings of sodium current using a QPatch 16× automated electrophysiological system in HEK 293 cells overexpressing Nav 1.3 and Nav 1.7 sodium channels, respectively. VDB of peak current was measured using an 8 s conditioning prepulse (to -55 mV for NaV1.3 and to −60 mV for […]) followed by a test pulse (0 mV, 20 ms). Currents are normalized to the peak current recorded in the absence of drug and expressed as percent inhibition. […] Glucagon secretion in the cells was induced by the treatment with veratridine at 30 μM for 1 hour in Krebs-Ringer buffer containing 0.1% BSA. Percent inhibition of glucagon secretion by Na channel blockers was calculated from the reduction of veratridine-induced glucagon secretion in the absence of drug.
Cells were seeded at 0.4×10^5/well in 96-well plates and allowed to recover for 1 day. The media was then changed to serum-free DMEM and incubated overnight. Cells were then treated with sodium-channel blockers in the presence of veratridine (15 μM) in Krebs-Ringer buffer containing 0.1% BSA and 3 mM glucose for 1 h. Supernatants were collected and stored at −80° C. until analysis. Glucagon levels were measured by an ELISA kit.

[1] = system: peak Na+ current (INa) in rat isolated pancreatic α-cells; assay: Peak Na+ current (INa) in isolated pancreatic α-cells, perforated patch-clamp
Procedure: Acutely isolated pancreatic islets were allowed to recover overnight at 37° C./5% CO2 in Islet Media (RMPI 1640 supplemented with 10 mM HEPES, 1 mM sodium pyruvate, 10% FBS, 100 U/mL penicillin, 100 μg/mL streptomycin, 2 mM L-glutamine). The islets were resuspended and then centrifuged for 3 minutes at 200×g. The supernatant was discarded and 20 mL of filtered DPBS-EDTA was added (DPBS without Ca and Mg, 3 mM EDTA (G Biosciences), 0.5% BSA (Sigma), 1.5 mM dextrose (Sigma). The islets were incubated for 3 minutes at 37° C./5% CO2 and then centrifuged for 3 minutes at 200×g. The pellet was resuspended in 5 mL of pre-warmed Accutase (Sigma) and transferred into a 60 mm suspension culture dish and incubated for 3 minutes at 37° C./5% CO2. The digested islets were centrifuged for 3 minutes at 200×g to remove the accutase and the pellet was resuspended in 20 mL of room temperature DPBS-EDTA as defined above but with BSA increased to 4%. The digested islets were gently triturated 10 times with a flamed, glass Pasteur pipette and the suspension was then applied to a […] cell strainer. The resulting single cell suspension was centrifuged for 3 minutes at 200×g and the cells were resuspended in 2 mL of pre-warmed Islet Media. The number of live cells was counted and diluted to 1×10^5 with Islet Media. […]
Membrane potential and ion channel currents were recorded 24-72 hours after dispersion using the perforated patch configuration. […] Series resistance (Rs) was monitored using a voltage step from −70 mV to 0 mV (5 ms, 0.5 Hz) and was allowed to stabilize prior to beginning the experiment (Rs<30 MOhm).
The identity of the α-cell was confirmed using cell size (membrane capacitance <6 pF) and the presence of electrical activity in low (3 mM) extracellular glucose, which are hallmarks of dispersed α-cells. […] All recordings were made using pClamp 10.2 and were analyzed using Microsoft Excel 2003, Graphpad Prism7 or OriginPro7.
Recordings of ionic currents were made at 32° C. […] INa was measured using a voltage step to 0 mV (20 ms, 0.2 Hz) from a holding potential of either −70 mV or −90 mV. […]

rat pancreatic islets [2] = assay: Veratridine-induced glucagon secretion in rat pancreatic islets; conditions: veratridine 30 μM
rat pancreatic islets [3] = assay: Arginine-induced glucagon secretion in rat pancreatic islets; conditions: L-arginine 20 mM

Row | SMILES | Glucagon Secretion % Inhibition (α-TC1 clone 9 cells) | block of peak INa ([1]; 10 μM, holding potential −70 mV) | block of peak INa ([1]; 10 μM, holding potential −90 mV) | reduction of veratridine-induced glucagon secretion (in words) (rat pancreatic islets [2]) | reduction of L-arginine-induced increase in glucagon secretion (rat pancreatic islets [3]; at 10 μM) | reduction of veratridine-induced increase of glucagon secretion (α-TC1 clone 9 cells; veratridine 15 μM, at 3 μM) | block of peak INa ([1]; 1 μM, at −90 and -70 mV) | reduction of L-arginine-induced increase in glucagon secretion (rat pancreatic islets [3]; at 1 μM)
1 | COc1ccccc1OCC(O)CN1CCN(CC(=O)Nc2c(C)cccc2C)CC1 (racemic) [Ranolazine, ±-N-(2,6-dimethylphenyl)-4-[2-hydroxy-3-(2-methoxyphenoxy)-propyl]-1-piperazineacetamide] | 29.99% | 25% | 10% | concentration-dependently reduced | 31±9% | – | – | –
2 | FC(F)(F)Oc1ccc(-c2ccc3nnc(C(F)(F)F)n3c2)cc1 [Compound A, 6-(4-(trifluoromethoxy)phenyl)-3-(trifluoromethyl)-[1,2,4]triazolo[4,3-α]pyridine] | 74.17% | – | – | concentration-dependently reduced | – | 70±4% | 40 | 24±6%
